# Laboratory results: article PMC10581193 (Microbiology Spectrum, 2023)
# Test system: M. tuberculosis H37Ra
# Assay: microbe, parasite or virus in culture
# Format: cell-based, Mycobacterium tuberculosis
# Settings: not given
row,Compound,MIC against H37Ra
1,"6-bromo-N-(2-hydroxyethyl)-4-((2-methoxy-5-(trifluoromethyl)pyridin-3-yl)methyl)-3,4-dihydro-2H-benzo[2, 4]oxazine-8-carboxamide [B4]",25 µg/mL
2,"6-bromo-N-(2-fluoroethyl)-4-((2-methoxy-5-(trifluoromethyl)pyridin-3-yl)methyl)-3,4-dihydro-2H-benzo[2, 4]oxazine-8-carboxamide [B3]",1.56 µg/mL
3,"COc1ncnc(Cn2ccc3c(C(=O)NCC(F)F)cc(Br)cc32)c1C [A4, 6-bromo-N-(2,2-difluoroethyl)-1-((6-methoxy-5-methylpyrimidin-4-yl)methyl)-1H-indole-4-carboxamide]",0.5
4,"6-bromo-N-(2-fluoroethyl)−4-((3,5,6-trimethylpyrazin-2-yl)methyl)−3,4-dihydro-2H-benzo[2, 4]oxazine-8-carboxamide [B1]",6.25 µg/mL
5,"Cc1cc(C(=O)NCCO)c2c(c1)N(Cc1nc(C)c(C)nc1C)CCO2 [B13, N-(2-hydroxyethyl)-6-methyl-4-((3,5,6-trimethylpyrazin-2-yl)methyl)-3,4-dihydro-2H-benzo[b][1,4]oxazine-8-carboxamide]",≥ 100
6,"6-bromo-N-(2,2-difluoroethyl)-4-((2-methoxy-5-(trifluoromethyl)pyridin-3-yl)methyl)-3,4-dihydro-2H-benzo[b][1,4]oxazine-8-carboxamide [B5]",> 25 µg/mL
7,"Cc1cc(C(=O)NCC(F)(F)F)c2c(c1)N(Cc1nc(C)c(C)nc1C)CCO2 [B12, 6-methyl-N-(2,2,2-trifluoroethyl)-4-((3,5,6-trimethylpyrazin-2-yl)methyl)-3,4-dihydro-2H-benzo[b][1,4]oxazine-8-carboxamide]",≥ 100

# Same assay, conditions: Mycobacterium tuberculosis, H37RA, read-out: MIC against H37Ra
row,Compound,MIC [µg/mL]
1,"COc1ncnc(Cn2ccc3c(C(=O)NCC(F)F)cc(C)cc32)c1C [A9, N-(2,2-difluoroethyl)-1-((6-methoxy-5-methylpyrimidin-4-yl)methyl)-6-methyl-1H-indole-4-carboxamide]",0.18
2,"COC(=O)c1cccc(CN2CCOc3c(C(=O)NCC(F)(F)F)cc(C4CC4)cc32)c1 [B25, methyl 3-((6-cyclopropyl-8-((2,2,2-trifluoroethyl)carbamoyl)-2,3-dihydro-4H-benzo[b][1,4]oxazin-4-yl)methyl)benzoate]",> 25
3,"COc1ncnc(Cn2ccc3c(C(=O)NCC(F)F)cc(Br)cc32)c1C [A4, 6-bromo-N-(2,2-difluoroethyl)-1-((6-methoxy-5-methylpyrimidin-4-yl)methyl)-1H-indole-4-carboxamide]",0.5
4,"Cc1nc(C)c(CN2CCOc3c(C(=O)NCCO)cc(C4CC4)cc32)nc1C [B19, 6-cyclopropyl-N-(2-hydroxyethyl)-4-((3,5,6-trimethylpyrazin-2-yl)methyl)-3,4-dihydro-2H-benzo[b][1,4]oxazine-8-carboxamide]",> 100
5,"COc1ccc(F)c(F)c1Cn1ccc2c(C(=O)NCC(F)F)cc(Br)cc21 [A2, 6-bromo-1-(2,3-difluoro-6-methoxybenzyl)-N-(2,2-difluoroethyl)-1H-indole-4-carboxamide]",> 6.25
6,COc1ccc(F)c(F)c1Cn1ccc2c(C(=O)NCCF)cc(Br)cc21 [A1],> 6.25
7,"Cc1nc(C)c(CN2CCOc3c(C(=O)NCCC(F)(F)F)cc(C4CC4)cc32)nc1C [B28, 6-cyclopropyl-N-(3,3,3-trifluoropropyl)-4-((3,5,6-trimethylpyrazin-2-yl)methyl)-3,4-dihydro-2H-benzo[b][1,4]oxazine-8-carboxamide]",> 25
8,"Cc1nc(C)c(CN2CCOc3c(C(=O)N[C@@H](C)C(F)(F)F)cc(C4CC4)cc32)nc1C [B26, (S)-6-cyclopropyl-N-(1,1,1-trifluoropropan-2-yl)-4-((3,5,6-trimethylpyrazin-2-yl)methyl)-3,4-dihydro-2H-benzo[b][1,4]oxazine-8-carboxamide]",> 25
9,Cc1nc(C)c(CN2CCOc3c(C(=O)NCC(F)(F)F)cc(-c4ccccc4)cc32)nc1C [B33],> 25
10,"Cc1nc(C)c(CN2CCOc3c(C(=O)N(C)CC(F)(F)F)cc(C4CC4)cc32)nc1C [B34, 6-cyclopropyl-N-methyl-n-(2,2,2-trifluoroethyl)-4-((3,5,6-trimethylpyrazin-2-yl)methyl)-3,4-dihydro-2H-benzo[b][1,4]oxazine-8-carboxamide]",> 25
11,"COc1ncc(C(F)(F)F)cc1Cn1ccc2c(C(=O)NCC(F)F)cc(Br)cc21 [A5, 6-bromo-N-(2,2-difluoroethyl)-1-((2-methoxy-5-(trifluoromethyl)pyridin-3-yl)methyl)-1H-indole-4-carboxamide]",> 6.25
12,"Cc1cc(C(=O)NCCO)c2c(c1)N(Cc1nc(C)c(C)nc1C)CCO2 [B13, N-(2-hydroxyethyl)-6-methyl-4-((3,5,6-trimethylpyrazin-2-yl)methyl)-3,4-dihydro-2H-benzo[b][1,4]oxazine-8-carboxamide]",> 100
13,"Cc1cc(C(=O)NCC(F)F)c2ccn(Cc3nc(C)c(C)nc3C)c2c1 [A8, N-(2,2-difluoroethyl)-6-methyl-1-((3,5,6-trimethylpyrazin-2-yl)methyl)-1H-indole-4-carboxamide]",> 6.25
14,"COc1ccc(F)c(F)c1CN1CCOc2c(C(=O)NCCF)cc(Br)cc21 [B6, 6-bromo-4-(2,3-difluoro-6-methoxybenzyl)-N-(2-fluoroethyl)-3,4-dihydro-2H-benzo[b][1,4]oxazine-8-carboxamide]",> 100
15,"Cc1nc(C)c(CN2CCOc3c(C(=O)NCC(F)(F)CO)cc(C4CC4)cc32)nc1C [B30, 6-cyclopropyl-N-(2,2-difluoro-3-hydroxypropyl)-4-((3,5,6-trimethylpyrazin-2-yl)methyl)-3,4-dihydro-2H-benzo[b][1,4]oxazine-8-carboxamide]",> 25
16,"COc1cc(CN2CCOc3c(C(=O)NCC(F)(F)F)cc(C4CC4)cc32)cc(OC)c1 [B23, 6-cyclopropyl-4-(3,5-dimethoxybenzyl)-N-(2,2,2-trifluoroethyl)-3,4-dihydro-2H-benzo[b][1,4]oxazine-8-carboxamide]",> 25
17,"Cc1cc(C(=O)NC2CCCCC2)c2c(c1)N(Cc1nc(C)c(C)nc1C)CCO2 [B16, N-cyclohexyl-6-methyl-4-((3,5,6-trimethylpyrazin-2-yl)methyl)-3,4-dihydro-2H-benzo[b][1,4]oxazine-8-carboxamide]",< 0.78

row,Compound,MIC [µg/mL]
1,"Cc1nc(C)c(CN2CCOc3c(C(=O)N[C@H](C)C(F)(F)F)cc(C4CC4)cc32)nc1C [B27, (R)-6-cyclopropyl-N-(1,1,1-trifluoropropan-2-yl)-4-((3,5,6-trimethylpyrazin-2-yl)methyl)-3,4-dihydro-2H-benzo[b][1,4]oxazine-8-carboxamide]",> 25
2,"COc1ccc(CN2CCOc3c(C(=O)NCC(F)(F)F)cc(C4CC4)cc32)cc1F [B24, 6-cyclopropyl-4-(3-fluoro-4-methoxybenzyl)-N-(2,2,2-trifluoroethyl)-3,4-dihydro-2H-benzo[b][1,4]oxazine-8-carboxamide]",> 25
3,"COc1ccc(F)c(F)c1Cn1ccc2c(C(=O)NCC(F)F)cc(C)cc21 [A7, 1-(2,3-difluoro-6-methoxybenzyl)-N-(2,2-difluoroethyl)-6-methyl-1H-indole-4-carboxamide]",> 6.25
4,"Cc1cc(C(=O)NCC(F)F)c2c(c1)N(Cc1nc(C)c(C)nc1C)CCO2 [B11, N-(2,2-difluoroethyl)-6-methyl-4-((3,5,6-trimethylpyrazin-2-yl)methyl)-3,4-dihydro-2H-benzo[b][1,4]oxazine-8-carboxamide]",0.18
5,"Cc1nc(C)c(Cn2ccc3c(C(=O)NCC(F)F)cc(Br)cc32)nc1C [A3, 6-bromo-N-(2,2-difluoroethyl)-1-((3,5,6-trimethylpyrazin-2-yl)methyl)-1H-indole-4-carboxamide]",> 6.25
6,"Cc1nc(C)c(CN2CCOc3c(C(=O)NCC(C)(F)F)cc(C4CC4)cc32)nc1C [B29, 6-cyclopropyl-N-(2,2-difluoropropyl)-4-((3,5,6-trimethylpyrazin-2-yl)methyl)-3,4-dihydro-2H-benzo[b][1,4]oxazine-8-carboxamide]",> 25
7,"COc1c(CN2CCOc3c(C(=O)NCC(F)F)cc(Br)cc32)ccc(F)c1F [B9, 6-bromo-4-(3,4-difluoro-2-methoxybenzyl)-N-(2,2-difluoroethyl)-3,4-dihydro-2H-benzo[b][1,4]oxazine-8-carboxamide]",> 100
8,"COc1ccc(F)c(F)c1CN1CCOc2c(C(=O)NCCO)cc(Br)cc21 [B8, 6-bromo-4-(2,3-difluoro-6-methoxybenzyl)-N-(2-hydroxyethyl)-3,4-dihydro-2H-benzo[b][1,4]oxazine-8-carboxamide]",> 100
9,"Cc1nc(C)c(CN2CCOc3c(C(=O)NCCCC(F)(F)F)cc(C4CC4)cc32)nc1C [B31, 6-cyclopropyl-N-(4,4,4-trifluorobutyl)-4-((3,5,6-trimethylpyrazin-2-yl)methyl)-3,4-dihydro-2H-benzo[b][1,4]oxazine-8-carboxamide]",> 25
10,COc1ccc(F)c(F)c1Cn1ccc2c(C(=O)NCCF)cc(C)cc21 [A6],> 6.25
11,"Cc1cc(C(=O)NCC(F)(F)F)c2c(c1)N(Cc1nc(C)c(C)nc1C)CCO2 [B12, 6-methyl-N-(2,2,2-trifluoroethyl)-4-((3,5,6-trimethylpyrazin-2-yl)methyl)-3,4-dihydro-2H-benzo[b][1,4]oxazine-8-carboxamide]",100
12,"COc1c(CN2CCOc3c(C(=O)NCCO)cc(Br)cc32)ccc(F)c1F [B10, 6-bromo-4-(3,4-difluoro-2-methoxybenzyl)-N-(2-hydroxyethyl)-3,4-dihydro-2H-benzo[b][1,4]oxazine-8-carboxamide]",> 100
13,"O=C(NCC(F)(F)F)c1cc(C2CC2)cc2c1OCCN2Cc1ccc2ccccc2c1 [B20, 6-cyclopropyl-4-(naphthalen-2-ylmethyl)-N-(2,2,2-trifluoroethyl)-3,4-dihydro-2H-benzo[b][1,4]oxazine-8-carboxamide]",> 25
14,"Cc1cc(C(=O)NC2CCCC2)c2c(c1)N(Cc1nc(C)c(C)nc1C)CCO2 [B15, N-cyclopentyl-6-methyl-4-((3,5,6-trimethylpyrazin-2-yl)methyl)-3,4-dihydro-2H-benzo[b][1,4]oxazine-8-carboxamide]",1.56
15,"Cc1nc(C)c(CN2CCOc3c(C(=O)NCC(F)F)cc(C4CC4)cc32)nc1C [B17, 6-cyclopropyl-N-(2,2-difluoroethyl)-4-((3,5,6-trimethylpyrazin-2-yl)methyl)-3,4-dihydro-2H-benzo[b][1,4]oxazine-8-carboxamide]",0.6
16,"COc1ccc(F)c(F)c1CN1CCOc2c(C(=O)NCC(F)F)cc(Br)cc21 [B7, 6-bromo-4-(2,3-difluoro-6-methoxybenzyl)-N-(2,2-difluoroethyl)-3,4-dihydro-2H-benzo[b][1,4]oxazine-8-carboxamide]",> 100
17,"Cc1ccc(CN2CCOc3c(C(=O)NCC(F)(F)F)cc(C4CC4)cc32)cc1 [B21, 6-cyclopropyl-4-(4-methylbenzyl)-N-(2,2,2-trifluoroethyl)-3,4-dihydro-2H-benzo[b][1,4]oxazine-8-carboxamide]",> 25
